# Measured values published in ChEMBL document CHEMBL6134845, “O-derivatization of natural tropolone and β-thujaplicin leading to effective inhibitors of human carbonic anhydrases IX and XII” (Eur J Med Chem, 2025).
# What was measured:
# [1] = biological target: Carbonic anhydrase 5A, mitochondrial (Homo sapiens, UniProt P35218); experiment: Inhibition of human CA-VA incubated for 15 mins by stopped-flow CO2 hydration assay
# Carbonic anhydrase 7 = Carbonic anhydrase 7 (Homo sapiens, UniProt P43166); experiment: Inhibition of human CA-VII incubated for 15 mins by stopped-flow CO2 hydration assay
# Carbonic anhydrase 7, sequence (P43166 whole entry): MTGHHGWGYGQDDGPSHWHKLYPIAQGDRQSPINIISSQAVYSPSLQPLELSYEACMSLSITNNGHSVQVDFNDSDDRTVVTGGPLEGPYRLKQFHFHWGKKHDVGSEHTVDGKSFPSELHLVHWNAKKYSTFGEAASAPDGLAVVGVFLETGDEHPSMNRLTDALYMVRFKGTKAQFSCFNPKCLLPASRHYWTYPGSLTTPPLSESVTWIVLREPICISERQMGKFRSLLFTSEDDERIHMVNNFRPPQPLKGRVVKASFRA
# Carbonic anhydrase 9 = Carbonic anhydrase 9 (Homo sapiens, UniProt Q16790)
# Description: Inhibition of human CA-IX incubated for 15 mins by stopped-flow CO2 hydration assay
# Carbonic anhydrase 1 = Carbonic anhydrase 1 (Homo sapiens, UniProt P00915); experiment: Inhibition of human CA-I incubated for 15 mins by stopped-flow CO2 hydration assay
# Carbonic anhydrase 1, sequence (P00915 whole entry): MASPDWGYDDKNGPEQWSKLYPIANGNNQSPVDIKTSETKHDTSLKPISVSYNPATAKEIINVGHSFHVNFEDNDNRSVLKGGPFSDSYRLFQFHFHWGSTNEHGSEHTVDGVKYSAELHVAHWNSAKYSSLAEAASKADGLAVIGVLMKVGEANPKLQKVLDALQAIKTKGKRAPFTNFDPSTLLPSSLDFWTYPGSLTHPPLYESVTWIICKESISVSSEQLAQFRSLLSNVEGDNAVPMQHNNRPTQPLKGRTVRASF
# Carbonic anhydrase 2 [2] = biological target: T1, Carbonic anhydrase 2 (Homo sapiens, UniProt P00918); experiment: Inhibition of wild-type human CA-II using p-nitrophenylacetate as substrate at 500 uM preincubated for 10 mins followed by substrate addition by absorbance based assay relative to control
# Homo sapiens [3] = species: Homo sapiens; experiment: Inhibition of […] human CA-II H94C mutant using p-nitrophenylacetate as substrate at 500 uM preincubated for 10 mins followed by substrate addition by absorbance based assay relative to control
# Homo sapiens [4] = species: Homo sapiens; experiment: Inhibition of […] human CA-II H94D mutant using p-nitrophenylacetate as substrate at 500 uM preincubated for 10 mins followed by substrate addition by absorbance based assay relative to control
# Carbonic anhydrase 2 [5] = biological target: T1, Carbonic anhydrase 2; experiment: Inhibition of human CA-II incubated for 15 mins by stopped-flow CO2 hydration assay
# Carbonic anhydrase 12 = Carbonic anhydrase 12 (Homo sapiens, UniProt O43570); experiment: Inhibition of human CA-XII incubated for 15 mins by stopped-flow CO2 hydration assay
# Carbonic anhydrase 12, sequence (O43570 whole entry): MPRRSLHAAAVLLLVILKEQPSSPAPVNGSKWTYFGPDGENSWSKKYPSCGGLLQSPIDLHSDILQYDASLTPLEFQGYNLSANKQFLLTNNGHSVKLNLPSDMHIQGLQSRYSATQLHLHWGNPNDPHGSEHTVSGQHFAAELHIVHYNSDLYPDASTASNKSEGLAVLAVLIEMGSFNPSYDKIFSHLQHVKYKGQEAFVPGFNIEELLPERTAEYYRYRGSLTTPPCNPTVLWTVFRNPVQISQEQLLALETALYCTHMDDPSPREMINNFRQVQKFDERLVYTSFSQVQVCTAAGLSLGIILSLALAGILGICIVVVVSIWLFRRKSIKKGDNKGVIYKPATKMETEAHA
# Carbonic anhydrase 2 [6] = biological target: T1, Carbonic anhydrase 2; experiment: Inhibition of wild-type human CA-II using p-nitrophenylacetate as substrate preincubated for 15 mins followed by substrate addition measured for 20 mins by absorbance based assay
# [7] = Inhibition of […] human CA-II L198G mutant using p-nitrophenylacetate as substrate preincubated for 15 mins followed by substrate addition measured for 20 mins by absorbance based assay
# [8] = Antiproliferative activity against human PBMC cells assessed as decrease in cell viability at 10 uM incubated for 48 hrs by Cell Titer Glo assay; type: toxicity, cell-based
# [9] = Induction of apoptosis in human BZB-resistant NCI-H929 cells assessed as viable cells at 2.5 uM incubated for 48 hrs by Annexin V/7-AAD staining based FACS analysis (reference value: 86.7 %); type: functional; settings: BZB-resistant […] cell, read-out: Activity
# [10] = Induction of apoptosis in human BZB-resistant NCI-H929 cells assessed as viable cells at 5 uM incubated for 48 hrs by Annexin V/7-AAD staining based FACS analysis (reference value: 86.7 %); type: functional; settings: BZB-resistant […] cell, read-out: Activity
# [11] = Induction of apoptosis in human BZB-resistant NCI-H929 cells assessed as viable cells at 10 uM incubated for 48 hrs by Annexin V/7-AAD staining based FACS analysis (reference value: 86.7 %); type: functional; settings: BZB-resistant […] cell, read-out: Activity
# Carbonic anhydrase 5A, mitochondrial, sequence (P35218 whole entry): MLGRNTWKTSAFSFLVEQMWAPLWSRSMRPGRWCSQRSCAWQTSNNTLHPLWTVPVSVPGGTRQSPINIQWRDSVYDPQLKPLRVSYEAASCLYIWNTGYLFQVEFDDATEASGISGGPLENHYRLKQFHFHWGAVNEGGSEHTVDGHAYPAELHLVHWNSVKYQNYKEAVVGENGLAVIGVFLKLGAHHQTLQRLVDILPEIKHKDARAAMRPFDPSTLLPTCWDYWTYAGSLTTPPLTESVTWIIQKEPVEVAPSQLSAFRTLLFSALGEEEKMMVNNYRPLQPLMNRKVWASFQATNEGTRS
Compound,Ki [1] [µM],Ki (Carbonic anhydrase 7) [µM],Ki (Carbonic anhydrase 9) [µM],Ki (Carbonic anhydrase 1) [µM],other results
CC(C)c1cccc(OCc2ccccc2[N+](=O)[O-])c(=O)c1,21.7,6.18,0.94,,
CC(C)c1cccc(=O)c(OCc2ccccc2C(F)(F)F)c1,83.5,> 100,,,
CC(C)c1cccc(OCc2cccc3ccccc23)c(=O)c1,89.4,3.95,0.53,> 100,
O=c1cccccc1OCc1ccc([N+](=O)[O-])cc1,> 100,> 100,13.3,6.22,
Cc1ccc(S(=O)(=O)Oc2cccc(C(C)C)cc2=O)cc1,4.45,5.27,0.4,> 100,
CC(C)c1cccc(OCc2ccc(Br)cc2)c(=O)c1,7.95,0.96,0.26,> 100,
O=c1cccccc1OCc1ccccc1[N+](=O)[O-],> 100,> 100,> 100,8.01,
CC(C)c1cccc(OCc2ccccc2C(F)(F)F)c(=O)c1,> 100,> 100,> 100,,
O=C(Oc1cccccc1=O)c1ccc([N+](=O)[O-])cc1,,> 100,> 100,84.4,
O=C(O)COc1cccccc1=O,8.11,,25.6,,
C#CCOc1cccccc1=O,> 100,,,0.05,
CC(C)c1cccc(OC(=O)c2ccc([N+](=O)[O-])cc2)c(=O)c1,> 100,9.6,0.37,> 100,
Cc1ccc(S(=O)(=O)Oc2cccccc2=O)cc1,> 100,> 100,> 100,94.2,
O=c1cccccc1OCc1cccc([N+](=O)[O-])c1,,> 100,34.5,> 100,
O=C(Oc1cccccc1=O)C12CC3CC(CC(C3)C1)C2,85.6,,43.5,,
CC(C)c1cccc(=O)c(O)c1 [HINOKITIOL],7.5,> 100,23.9,4.98,inhibition (Carbonic anhydrase 2 [2]): 16%; inhibition (Homo sapiens [3]): 0%; inhibition (Homo sapiens [4]): 47%; Ki (Carbonic anhydrase 2 [5]): 90.6 µM; Ki (Carbonic anhydrase 12): > 100 µM
CC(C)c1cccc(OCCCCCOc2cccc(C(C)C)cc2=O)c(=O)c1,31.6,7.1,1.33,> 100,
O=c1cccccc1O [TROPOLONE],> 100,> 100,> 100,> 100,inhibition (Homo sapiens [3]): 0%; inhibition (Homo sapiens [4]): 47%; Ki (Carbonic anhydrase 2 [6]): 1350 µM; Ki [7]: 245 µM; Ki (Carbonic anhydrase 2 [5]): > 100 µM; Ki (Carbonic anhydrase 12): > 100 µM
O=c1cccccc1OCCCCCBr,,1.52,0.54,> 100,
N#Cc1ccc(COc2cccccc2=O)cc1,> 100,> 100,> 100,8.31,
O=c1cccccc1OCc1cccc2ccccc12,,2.82,2.28,> 100,
O=c1cccccc1S,,,,,Ki (Carbonic anhydrase 2 [6]): 96 µM; Ki [7]: 61 µM
Cc1ccc(S(=O)(=O)Oc2cc(C(C)C)cccc2=O)cc1,,9.33,0.42,> 100,Activity [8]: Non-toxic; viability at 2.5 µM [9]: 78.1%; viability at 5 µM [10]: 74.5%; viability at 10 µM [11]: 36.7%
CC(C)c1cccc(=O)c(OCc2ccccc2[N+](=O)[O-])c1,8.96,5.41,1.41,> 100,
O=c1cccccc1OCc1ccccc1C(F)(F)F,6.63,6.19,4.3,> 100,
O=c1cccccc1OCc1ccc(Br)cc1,> 100,,37.7,> 100,
O=c1cccccc1OCCCCl,,5.2,8.94,> 100,
